Test results: patent US5087639A, “Preventing CNS toxicity of acivicin when used with four large neutral amino acids” (The Upjohn Company, priority 1988, dated 1992)
Like-named read-outs stand apart in the source and are kept apart here.

What was measured:
[1] = Plasma pharmacokinetics of acivicin in cats with concomitant infusion; conditions: cat, in vivo, ip, 60 mg/kg, mean ± s.d.; for Vd/F: read-out: Varea
Description: Blood was sampled through the blood sampling cannula at -4.0, 0, +4, +6, +9, +12, +18, +24 and +30 hours relative to the acivicin dose, for determination of acivicin concentration by microbiological assay.

Acivicin-Treated Cats = assay: Incidence of toxic symptoms (mydriasis, vomiting, sedation, ataxia) in acivicin-treated cats with concomitant infusion
cancer patients [2] = conditions: clinical trials conducted to date; cited from earlier work
tumor cell = conditions: laboratory data; cited from earlier work
cancer patients [3] = conditions: cited from earlier work
[4] = acivicin 60 mg/kg i.p. plus infusion of the named solution, label Acivicin = saline infusion, affected/treated cats

`N[C@H](C(=O)O)[C@@H]1CC(Cl)=NO1` [Acivicin, (αS,5S)-α-amino-3-chloro-2-isoxazoline-5-acetic acid] gave a CL/F ([1]; Aminosyn infusion, n=2) of 1.83 mL/min/kg, a half-life ([1]; Aminosyn infusion, n=2) of 4.3 ± 0.7 h and a k el ([1]; Aminosyn infusion, n=2) of 4.44e-05 s⁻¹. For the same compound, the Vd/F ([1]; Aminosyn infusion, n=2) was 0.684 ± 0.064 L/kg, the CL/F ([1]; LNAA infusion, n=3) was 1.05 mL/min/kg and the half-life ([1]; LNAA infusion, n=3) was 8.3 ± 0.8 h. It also gave a k el ([1]; LNAA infusion, n=3) of 2.33e-05 s⁻¹, a Vd/F ([1]; LNAA infusion, n=3) of 0.75 ± 0.081 L/kg and a CL/F ([1]; OAA infusion, n=3) of 1.28 mL/min/kg. The half-life ([1]; OAA infusion, n=3) was 7.4 ± 1.06 h, the k el ([1]; OAA infusion, n=3) was 2.64e-05 s⁻¹ and the Vd/F ([1]; OAA infusion, n=3) was 0.814 ± 0.061 L/kg. It also gave a CL/F ([1]; Saline infusion, n=3) of 1.28 mL/min/kg, a half-life ([1]; Saline infusion, n=3) of 8.4 ± 2.5 h and a k el ([1]; Saline infusion, n=3) of 2.42e-05 s⁻¹. It also gave a Vd/F ([1]; Saline infusion, n=3) of 0.893 ± 0.143 L/kg, a CL/F ([1]; second line "aminosyn", n=4) of 0.918 mL/min/kg and a half-life ([1]; second line "aminosyn", n=4) of 8.18 ± 1.36 h. For the same compound, the k el ([1]; second line "aminosyn", n=4) was 2.58e-05 s⁻¹, the Vd/F ([1]; second line "aminosyn", n=4) was 0.625 ± 0.0123 L/kg and the CL/F ([1]; second line "saline", n=4) was 1.85 mL/min/kg. For the same compound, the half-life ([1]; second line "saline", n=4) was 2.6 ± 0.41 h, the k el ([1]; second line "saline", n=4) was 7.64e-05 s⁻¹ and the Vd/F ([1]; second line "saline", n=4) was 0.408 ± 0.0331 L/kg. The incidence of ataxia (Acivicin-Treated Cats; [4]) was 4/4, the incidence of mydriasis (Acivicin-Treated Cats; [4]) was 4/4 and the incidence of sedation (Acivicin-Treated Cats; [4]) was 4/4. For the same compound, the incidence of vomiting (Acivicin-Treated Cats; [4]) was 1/4, the “ataxia and sedation (in words)” value (Acivicin-Treated Cats; acivicin-treated cats, label Acivicin = saline-treated) was “both ataxic sedated” and the “efficacy in clinical trials” value (cancer patients [2]) was “marginal”. For the same compound, the “dependence of cytotoxicity on tumor cell exposure concentration and duration” value (tumor cell) was “strong dependence”, the “CNS effects in humans” value (cancer patients [3]; dose-limiting) was “reversible, dose-limiting CNS effects such as sedation, ataxia, personality changes and hallucinations” and the dose-limiting toxicity (cancer patients [3]; previous Phase I and II trials) was “neurotoxicity which is dose-dependent and reversible”.
